IC50 data for 30 molecules are collected here from patent US20120065195A1, “COMPOUNDS FOR TREATING NEURODEGENERATIVE DISEASES” (priority 2010, published 2012).

The assay deals with T1, BACE1 (Homo sapiens, UniProt P56817).
T1 construct: endogenous in cells; host or cells: HEK-293 (stably transfected with wild type APP695 only)
T1 sequence (P56817 46-501): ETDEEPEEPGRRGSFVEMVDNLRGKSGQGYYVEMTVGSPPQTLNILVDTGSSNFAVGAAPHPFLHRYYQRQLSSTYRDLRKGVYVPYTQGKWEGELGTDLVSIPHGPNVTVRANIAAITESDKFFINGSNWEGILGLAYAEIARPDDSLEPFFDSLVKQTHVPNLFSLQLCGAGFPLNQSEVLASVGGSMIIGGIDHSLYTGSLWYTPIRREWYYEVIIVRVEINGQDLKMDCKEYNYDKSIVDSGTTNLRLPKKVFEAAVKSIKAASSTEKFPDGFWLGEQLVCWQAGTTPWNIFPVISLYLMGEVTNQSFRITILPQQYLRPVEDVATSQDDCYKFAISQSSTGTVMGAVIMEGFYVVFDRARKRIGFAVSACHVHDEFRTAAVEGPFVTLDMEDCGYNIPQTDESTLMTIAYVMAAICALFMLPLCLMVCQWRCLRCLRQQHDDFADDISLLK
Kind of assay: Cellular BACE1 Inhibition Assay (in vitro cellular Amyloidβ 1-40 production assay, HTRF immunoassay). Type of assay: cell-based. As to the method: The BACE inhibition properties of the compounds of the invention may be determined by the following in vitro cellular Amyloidβ 1-40 production assay.
Inhibition of Amyloidβ1-40 production was determined by incubating cells with compound for 48 hours and quantifying the level of Amyloidβ 1-40 using an HTRF immunoassay.
Materials and Methods: HEK-293 cells stably transfected with a DNA construct containing the coding sequence for the wild type APP695 sequence were grown in DMEM supplemented with 10% fetal bovine serum, penicillin/streptomycin and 150 μg/mL G418. Cells were plated in 96-well plates at 35,000 cells/well and allowed to attach for 8-12 hours. Media was changed to DMEM supplemented with 10% fetal bovine serum, penicillin/streptomycin 15 minutes prior to compound addition. Diluted compounds were then added at a final concentration of 0.5% DMSO. After 48 hours, 4 μL of media from each well was added to a corresponding well of a 384 well plate (Perkin Elmer Cat#6008280) containing the HTRF reagents. HTRF reagents were obtained from the CisBio Amyloidβ 1-40 peptide assay kit (Cat#62B40PEC) and were prepared as follows anti-peptide β (1-40)-Cryptate and anti-peptide β (1-40)-XL655 were stored in 2 plate aliquots at −80° C. Diluent and Reconstitution buffer were stored at 4° C. Aliquots of the two antibodies were diluted 1:100 with Reconstitution buffer, and this mixture was diluted 1:2 with Diluent. 12 μL of the reagent mixture was added to the required wells of the 384 well assay plate. The assay plate was incubated at 4° C. for 17 hours and then analyzed for fluorescence at 665 and 620 nm.
What is called IC50 is the point on the concentration scale where inhibition reaches its midpoint. A low value points to greater potency in that assay. In turn, `CN1C(=O)C2(CCCc3ccc(-c4cncnc4)cc32)N=C1N` (stereo not drawn) [Example 25, 2-Amino-1-methyl-7′-(pyrimidin-5-yl)-3′,4′-dihydro-2′H-spiro[imidazole-4,1′-naphthalen]-5(1H)-one] showed an IC50 of 104 nM. Consider `CC(C)CCc1ccc2c(c1)C1(N=C(N)N(C)C1=O)C(C)CC2` (stereo not drawn) [Example 22], for which it took 264 nM to reach half-maximal inhibition (IC50).

In turn, `CN1C(=O)C2(CC(C)(C)Cc3ccc(C#CC4CC4)cc32)N=C1N` (stereo not drawn) [Example 17, 2-amino-7′-(cyclopropylethynyl)-1,3′,3′-trimethyl-3′,4′-dihydro-2′H-spiro[imidazole-4,1′-naphthalen]-5(1H)-one] returned an IC50 of 81.9 nM. The same measure for `CN1C(=O)C2(CC(C)(C)Cc3ccc(C#CCCCC#N)cc32)N=C1N` (stereo not drawn) [Example 18, 6-(2-amino-1,3′,3′-trimethyl-5-oxo-1,3′,4′,5-tetrahydro-2′H-spiro[imidazole-4,1′-naphthalene]-7′-yl)hex-5-ynenitrile]: 37.4 nM; for `CN1C(=O)C2(CC(C)(C)Cc3ccc(-c4cncc(C#N)c4)cc32)N=C1N` (stereo not drawn) [Example 134, 5-(2-amino-1,3′,3′-trimethyl-5-oxo-1,3′,4′,5-tetrahydro-2′H-spiro[imidazole-4,1′-naphthalene]-7′-yl)nicotinonitrile]: 7.9 nM; for `CN1C(=O)C2(CC3(CCOCC3)Cc3ccc(-c4cncnc4)cc32)N=C1N` (stereo not drawn) [Example 74, 2-amino-7″-(pyrimidin-5-yl)-1-methyl-2′,3′,5′,6′-tetrahydro-3″,4″-dihydro-2″H-dispiro[imidazol-4,1″- naphthalen-3″,4′-pyran]-5(1H)-one]: 258 nM. Then `CN1C(=O)[C@@]2(N=C1N)c1cc(-c3cccc(Cl)c3)ccc1CC[C@@H]2CC1CCN(CC(F)F)CC1` [Example 62, (1′S,2′R)-2-amino-7′-(3-chlorophenyl)-2′-((1-(2,2-difluoroethyl)piperidin-4-yl)methyl)-1-methyl-3′,4′-dihydro-2′H-spiro[imidazole-4,1′-naphthalen]-5(1H)-one], with 306 nM; and `CN1C(=O)C2(N=C1N)c1cc(-c3cccc(Cl)c3)ccc1CCC21CCOCC1` (stereo not drawn) [Example 35, 2-amino-7″-(3-chlorophenyl)-1-methyl-2′,3′,5′,6′-tetrahydro-3″,4″-dihydro-2″H-dispiro[midazol-4,1″-naphthalen-2″,4′-pyran]-5(1H)-one], with 192 nM; and `CN1C(=O)C2(N=C1N)c1cc(-c3cccnc3F)ccc1CC(C)(C)C2F` (stereo not drawn) [Example 156, 2-amino-2′-fluoro-7′-(2-fluoropyridin-3-yl)-1,3′,3′-trimethyl-3′,4′-dihydro-2′H-spiro[imidazole-4,1′-naphthalen]-5(1H)-one], with 17.2 nM. Turning to `Cc1nc(C(=O)Nc2ccc3c(c2)C2(COC(N)=N2)CC(C)(C)C3)co1` (stereo not drawn) [Example 90, N-(2′-amino-3-dimethyl-3,4-dihydro-2H,5′H-spiro[naphthalene-1,4′-oxazole]-7-yl)-2-methyloxazole-4-carboxamide], 16.8 nM corresponded to half-maximal inhibition (IC50). The same measure for `Cc1cncc(-c2ccc3c(c2)C2(CC(C)(C)C3)N=C(N)N(C)C2=O)c1` (stereo not drawn) [Example 131, 2-amino-1,3′,3′-trimethyl-7′-(5-methylpyridin-3-yl)-3′,4′-dihydro-2′H-spiro[imidazole-4,1′-naphthalen]-5 (1H)-one]: 5.1 nM; for `CN1C(=O)C2(N=C1N)c1cc(-c3cncnc3)ccc1CCC2(C)C` (stereo not drawn) [Example 27, 2-amino-1,2′,2′-trimethyl-7′-(pyrimidin-5-yl)-3′,4′-dihydro-TH-spiro[imidazole-4,1′-naphthalen]-5(1H)-one]: 10.1 nM. The same measure for `CN1C(=O)[C@@]2(N=C1N)c1cc(-c3cccc(Cl)c3)ccc1CC[C@H]2CC1CCN(CC(F)F)CC1` [Example 32, (1′S,2′S)-2-amino-7′-(3-chlorophenyl)-2′-((1-(2,2-difluoroethyl)piperidin-4-yl)methyl)-1-methyl-3′,4′-dihydro-2′H-spiro[imidazole-4,1′-naphthalen]-5(1H)-one]: 48.6 nM; for `CN1C(=O)C2(CCCc3ccc(-c4cccc(Cl)c4)cc32)N=C1N` (stereo not drawn) [Example 24, 2-amino-7′-(3-chlorophenyl)-1-methyl-3′,4′-dihydro-2′H-spiro[imidazole-4,1′-naphthalen]-5(1H)-one]: 189 nM. For `CN1C(=O)C2(N=C1N)c1cc(-c3cncc(Cl)c3)ccc1CC(C)(C)C2F` (stereo not drawn) [Example 158, 2-amino-7′-(5-chloropyridin-3-yl)-2′-fluoro-1,3′,3′-trimethyl-3′,4′-dihydro-2′H-spiro[imidazole-4,1′-naphthalen]-5(1H)-one], the IC50 is 6.7 nM. The same measure for `CC1CCc2ccc(-c3cc(F)cc(Cl)c3)cc2C12N=C(N)N(C)C2=O` (stereo not drawn) [Example 56, 2-amino-7′-(3-chloro-5-fluorophenyl)-1,2′-dimethyl-3′,4′-dihydro-2′H-spiro[imidazole-4,1′-naphthalen]-5(1H)-one]: 361 nM; for `CC1CCc2ccc(-c3cccc(Cl)c3)cc2C12N=C(N)N(C)C2=O` (stereo not drawn) [Example 21, 2-amino-7′-(3-chlorophenyl)-1,2′-dimethyl-3′,4′-dihydro-2′H-spiro[imidazole-4,1′-naphthalen]-5(1H)-one]: 226 nM. The molecule `CC1(C)Cc2ccc(-c3cncnc3)cc2C2(CSC(N)=N2)C1` (stereo not drawn) [Example 109, 3,3-dimethyl-7-(pyrimidin-5-yl)-3,4-dihydro-2H,5′H-spiro[naphthalene-1,4′-thiazol]-2′-amine] gave an IC50 of 482 nM. Then `CC1CCc2ccc(-c3cccc(OC(F)F)c3)cc2C12N=C(N)N(C)C2=O` (stereo not drawn) [Example 57, 2-amino-7′-(3-(difluoromethoxy)phenyl)-1,2′-dimethy1-3′,4-dihydro-2′H-spiro[imidazole-4,1′-naphthalen]-5(1H)-one], with 363 nM; and `CN1C(=O)C2(N=C1N)c1cc(-c3cccnc3F)ccc1CC(C)(C)C2(F)F` (stereo not drawn) [Example 159, 2-amino-2′,2′-difluoro-7′-(2-fluoropyridin-3-yl)-1,3′,3′-trimethyl-3′,4′-dihydro-TH-spiro[imidazole-4,1′-naphthalen]-5(1H)-one], with 26.1 nM; and `CN1C(=O)C2(CC3(CCOCC3)Cc3ccc(/C=C/C(C)(C)C)cc32)N=C1N` (stereo not drawn) [Example 45, (E)-2-amino-7″-(3,3-dimethylbut-1-enyl)-1-methyl-2′,3′,5′,6′-tetrahydro-3″,4″-dihydro-2″H-dispiro[imidazol-4,1″-naphthalen-3″,4′-pyran]-5(1H)-one], with 69.6 nM. Then `CN1C(=O)C2(CC(C)(C)Cc3ccc(-c4cccc(Cl)c4)nc32)N=C1N` (stereo not drawn) [Example 20, 2-amino-2′-(3-chlorophenyl)-1,6′,6′-trimethyl-6′,7′-dihydro-5′H-spiro[imidazole-4,8′-quinolin]-5(1H)-one], with 1430 nM. In turn, `CN1C(=O)C2(CC(C)(C)Cc3ccc(-c4cc(C(F)(F)F)ccn4)cc32)N=C1N` (stereo not drawn) [Example 139, 2-amino-1,3′,3′-trimethyl-7′-(4-(trifluoromethyl)pyridin-2-yl)-3′,4′-dihydro-2′H-spiro[imidazole-4,1′-naphthalen]-5(1H)-one] yielded an IC50 of 14.8 nM. The same measure for `CN1C(=O)C2(N=C1N)c1cc(-c3cncnc3)ccc1CC(C)(C)C2F` (stereo not drawn) [Example 157, 2-amino-2′-fluoro-1,3′,3′-trimethyl-7′-(pyrimidin-5-yl)-3′,4′-dihydro-2′H-spiro[imidazole-4,1′-naphthalen]-5(1H)-one]: 39.6 nM. `CC1(C)Cc2ccc(NC(=O)c3ccc(Br)cn3)cc2C2(COC(N)=N2)C1` (stereo not drawn) [Example 88, N-(2′-amino-3,3-dimethyl-3,4-dihydro-2H,5′H-spiro[naphthalene-1,4′-oxazole]-7-yl)-5-bromopicolinamide] yielded an IC50 of 46.3 nM. Then `CN1C(=O)[C@]2(C[C@@](C)(CO)Cc3ccc(-c4cc(F)cc(Cl)c4)cc32)N=C1N` [Example 144, (1′R,3′S)-2-amino-7′-(3-chloro-5-fluorophenyl)-3′-(hydroxymethyl)-1,3′-dimethyl-3′,4′-dihydro-2′H-spiro[imidazole-4,1′-naphthalen]-5(1H)-one], with 3.3 nM; and `CN1C(=O)C2(CC(C)(C)Cc3ccc(/C=C/C4CC4)cc32)N=C1N` (stereo not drawn) [Example 15, (E)-2-amino-7′-(2-cyclopropylvinyl)-1,3′,3′-trimethyl-3′,4′-dihydro-2′H-spiro[imidazole-4,1′-naphthalen]-5(1H)-one], with 76.7 nM; and `CN1C(=O)C2(CC3(CCOCC3)Cc3ccc(-c4cc(F)cc(Cl)c4)cc32)N=C1N` (stereo not drawn) [Example 42, 2-amino-7″-(3-fluoro-5-chlorophenyl)-1-methyl-2′,3′,5′,6′-tetrahydro-3″,4″-dihydro-2″H-dispiro[imidazol-4,1″-naphthalen-3″,4′-pyran]-5(1H)-one], with 121 nM.

For the molecule `CN1C(=O)[C@]2(N=C1N)c1cc(-c3cncnc3)ccc1C[C@]1(C)CC12` (single isomer, unassigned) [Example 155], 27.1 nM corresponded to half-maximal inhibition (IC50). The same measure for `CN1C(=O)C2(CCCc3ccc(-c4cncc(Cl)c4)cc32)N=C1N` (stereo not drawn) [Example 23, 2-amino-7′-(5-chloropyridin-3-yl)-1-methyl-3′,4′-dihydro-2′H-spiro[imidazole-4,1′-naphthalen]-5(1H)-one]: 28.5 nM.
